Laboratory results taken from ChEMBL document CHEMBL2375321, “Discovery of 3,3'-diindolylmethanes as potent antileishmanial agents” (Eur J Med Chem, 2013).
Converted amounts (≈) assume the structure as drawn. The source made the active and inactive calls. Unless noted, no cut-off for these calls is given here.

What was measured:
Staphylococcus aureus [1] = assay: Antibacterial activity against Staphylococcus aureus ATCC 29213 by CLSI method; format: functional, organism-based
Staphylococcus aureus [2] = assay: Antibacterial activity against methicillin-resistant Staphylococcus aureus ATCC 33591 by CLSI method; format: functional, organism-based
Vero = assay: Cytotoxicity against african green monkey Vero cells up to 4.6 ug/ml after 48 hrs by neutral red assay; format: cell-based; details: chlorocebus sabaeus
Leishmania donovani [3] = assay: Antileishmanial activity against promastigote of Leishmania donovani after 72 hrs by alamar blue assay; format: functional, organism-based; details: Leishmania donovani, 72 h; for IC50: read-out: IC50
Leishmania donovani [4] = assay: Antileishmanial activity against axenic amastigote of Leishmania donovani after 72 hrs by alamar blue assay; format: functional, organism-based
[5] = tested on: Mycobacterium intracellulare; assay: Antibacterial activity against Mycobacterium intracellulare ATCC 23068 by alamar blue assay; format: functional, organism-based
Plasmodium falciparum = assay: Antimalarial activity against chloroquine-sensitive Plasmodium falciparum D6 assessed as plasmodial LDH activity after 72 hrs; format: functional, organism-based; details: D6, 72 h
Candida albicans = assay: Antifungal activity against Candida albicans ATCC 90028 by CLSI method; format: functional, organism-based
Cryptococcus neoformans = assay: Antifungal activity against Cryptococcus neoformans ATCC 90113 by CLSI method; format: functional, organism-based
Aspergillus fumigatus = assay: Antifungal activity against Aspergillus fumigatus ATCC 204305 by CLSI method; format: functional, organism-based
Bacillus subtilis = assay: Antibacterial activity against Bacillus subtilis by CLSI method; format: functional
[6] = Leishmania donovani, 72 h, read-out: IC50
[7] = Staphylococcus aureus, ATCC 33591
[8] = Staphylococcus aureus, ATCC 33591, read-out: IC50

Compound | IC50 (Staphylococcus aureus [1]) [µM] | MBC (Staphylococcus aureus [1]) | MIC (Staphylococcus aureus [1]) | IC50 (Staphylococcus aureus [2]) | MBC (Staphylococcus aureus [2]) | Activity (Vero) | IC90 (Leishmania donovani [3]) [µM] | IC50 (Leishmania donovani [3]) [µM] | IC90 (Leishmania donovani [4]; Leishmania donovani, 72 h) [µM] | IC50 (Leishmania donovani [4]; [6]) [µM] | IC50 [5] | MBC [5] | MIC [5] | Activity (Candida albicans) | IC50 (Cryptococcus neoformans) [µM] | MFC (Cryptococcus neoformans) | MIC (Cryptococcus neoformans) | MIC (Staphylococcus aureus [2]; [7]) [µM] | IC50 (Staphylococcus aureus [2]; [8]) [µM] | Activity (Aspergillus fumigatus) | also measured
Clc1cccc(Cl)c1C(c1c[nH]c2ccccc12)c1c[nH]c2ccccc12 | 2.36 | 51.3 µM (≈ 20.1 µg/mL) | 6.41 µM (≈ 2.51 µg/mL) | Not Active | inactive | Non-toxic | 90.8 | 80.7 | 81.5 | 48.4 | Not Active | inactive | inactive |  |  |  |  |  |  |  | MIC (Staphylococcus aureus [2]): inactive; IC50 (Plasmodium falciparum): 12.1 µM
Brc1cccc(C(c2c[nH]c3ccccc23)c2c[nH]c3ccccc23)c1 | 3.75 | inactive | 12.5 µM (≈ 5.02 µg/mL) |  | inactive | Non-toxic | 59.4 | 27.4 | 75.6 | 35.9 | Not Active | inactive | inactive | inactive | 5.33 | 12.5 µM (≈ 5.02 µg/mL) | 12.5 µM (≈ 5.02 µg/mL) | 12.5 (≈ 5.02 µg/mL) | 6.3 | inactive | 
Oc1ccc(C(c2c[nH]c3ccccc23)c2c[nH]c3ccccc23)cc1 | 10.5 | inactive | 29.6 µM (≈ 10 µg/mL) |  | inactive | Non-toxic | 106 | 92.8 | 88.9 | 51.3 | Not Active | inactive | inactive | inactive | 18.9 | 59.2 µM (≈ 20 µg/mL) | 29.6 µM (≈ 10 µg/mL) | 59.2 (≈ 20 µg/mL) | 17.8 | inactive | 
O=C1N[C@@H](c2c[nH]c3cc(Br)ccc23)CN=C1c1c[nH]c2cc(Br)ccc12 [HAMACANTHIN A] |  |  | 6.45 µM (≈ 3.14 µg/mL) |  |  |  |  |  |  |  |  |  |  |  |  |  |  | 6.45 (≈ 3.14 µg/mL) |  |  | MIC (Bacillus subtilis): 3.22 µM (≈ 1.57 µg/mL)
Clc1ccc(C(c2c[nH]c3ccccc23)c2c[nH]c3ccccc23)cc1 | 3.79 | inactive | 7.02 µM (≈ 2.51 µg/mL) |  |  | Non-toxic | 39 | 26.7 | 77 | 42 | Not Active | inactive | inactive | inactive | 5.56 | 14 µM (≈ 5.01 µg/mL) | 14 µM (≈ 5.01 µg/mL) | 14 (≈ 5 µg/mL) | 6.12 | inactive | MBC (Staphylococcus aureus [2]; [7]): 56.2 µM (≈ 20.1 µg/mL)
COc1ccc(C(c2c[nH]c3ccccc23)c2c[nH]c3ccccc23)cc1 | 9.06 | inactive | inactive | Not Active | inactive | Non-toxic | 106 | 89 |  |  | Not Active | inactive | inactive | inactive | 35.5 | inactive | inactive |  |  | inactive | MIC (Staphylococcus aureus [2]): inactive; IC50 (Leishmania donovani [4]): Not Active; IC90 (Leishmania donovani [4]): inactive
